Data reported in patent publication US8394809B2, “Phenoxy-substituted pyrimidines as opioid receptor modulators” (priority 2009, dated 2013).
Where two headings read alike, the source gives them in different places.

Legend:
delta opioid receptor [1] = biological target: T1, delta opioid receptor (Rattus norvegicus, UniProt P33533); test: Rat brain delta opioid receptor binding assay; details: rat forebrain membranes
T1 construct: the forebrains were homogenized in Tris buffer in a Teflon®-glass homogenizer; from tissue; host or cells: forebrain of male Wistar rats, particulate membrane preparation
Description: (§1) Procedure: Male, Wistar rats (150-250 g, VAF, Charles River, Kingston, N.Y.) were killed by CO2, and their brains were removed and placed immediately in ice cold Tris HCl buffer (50 mM, pH 7.4). The forebrains were separated from the remainder of the brain by a coronal transection, beginning dorsally at the colliculi and passing ventrally through the midbrain-pontine junction. After dissection, the forebrains were homogenized in Tris buffer in a Teflon®-glass homogenizer. The homogenate was diluted to a concentration of 1 g of forebrain tissue per 80 mL Tris and centrifuged at 39,000×g for 10 min. The pellet was resuspended in the same volume of Tris buffer containing 5 mM MgCl2 with several brief pulses from a Polytron homogenizer. This particulate preparation was used for the delta opioid binding assays. Following incubation with the delta selective peptide ligand ˜4 nM [^3H]DPDPE or 0.25 nM [^3H]naltrindole at 25° C. for 2.5 h in a 96-well plate with total volume of […], the plate contents were filtered through Wallac filtermat B sheets on a Tomtec 96-well harvester. […] To each sample area 2×50 μL of Betaplate Scint scintillation fluid (LKB) was added and the radioactivity was quantified on a LKB (Wallac) 1205 BetaPlate liquid scintillation counter.
(§2) Analysis: The data from the scintillation counter was used to calculate either the % inhibition compared to control binding (when only a single concentration of test compound was evaluated) or a Ki value (when a range of concentrations was tested). Percent inhibition was calculated as: [(total dpm−test compound dpm)/(total dpm-nonspecific dpm)]*100. Kd and Ki values were calculated using GraphPad PRISM data analysis program.

delta opioid receptor [2] = biological target: T2, delta opioid receptor (Mus musculus, UniProt P32300); test: [35S]GTPγS binding assay in NG108-15 cell membranes (delta opioid functional assay); format: biochemical; details: 10 μM
T2 construct: NG108-15 cell membranes were purchased from Applied Cell Sciences (Rockville, Md.); host or cells: NG108-15 cell membranes (purchased)

mu opioid receptor = biological target: T3, mu opioid receptor (Rattus norvegicus, UniProt P33535); test: Rat brain mu opioid receptor binding assay; details: rat forebrain membranes, ~0.8 nM [3H]DAMGO; read-out: μ-binding Ki
T3 construct: the forebrains were homogenized in Tris buffer in a Teflon®-glass homogenizer; from tissue; host or cells: forebrain of male Wistar rats, particulate membrane preparation
Description: as §1, with “mu” for “delta”, “ligand, ˜0.8” for “ligand ˜4”, “[^3H]DAMGO,” for “[^3H]DPDPE or 0.25 nM [^3H]naltrindole”, “total assay” for “total”, “2×40” for “2×50”, “quantifed” for “quantified”
as §2

delta opioid receptor [3] = biological target: T2, delta opioid receptor; test: [35S]GTPγS binding assay in NG108-15 cell membranes (delta opioid functional assay); format: biochemical; details: for GTPγS δ-Rel Efficacy @200 nM: 200 nM compound, relative to calculated max of SNC80 dose response
Description: Methods: NG108-15 cell membranes were purchased from Applied Cell Sciences (Rockville, Md.). 5 mg/mL of membrane protein was suspended in 10 mM TRIS-HCl pH 7.2, 2 mM EDTA, 10% sucrose. Membranes were maintained at 4-8° C. A 1 mL volume of membranes was added into 10 mL cold binding assay buffer. The assay buffer contained 50 mM Tris, pH 7.6, 5 mM MgCl2, 100 mM NaCl, 1 mM DTT and 1 mM EGTA. The membrane suspension was homogenized twice with a Polytron, and centrifuged at 3000 rpm for 10 min. The supernatant was then centrifuged at 18,000 rpm for 20 min. Ten mL assay buffer was added into the pellet containing tube. The pellet and buffer were mixed with a Polytron.
Incubation procedure: The pellet membranes (75 μg/mL) were preincubated with SPA (10 mg/mL) at 25° C. for 45 min in the assay buffer. […] 200 nM of receptor agonists was used to stimulate [^35S]-GTPγS binding. The basal binding was tested in the absence of agonists and non-specific binding was tested in the presence of 10 μM unlabeled GTPγS.
Data % of Basal=(stimulated−non specific)*100/(basal−non specific). Relative Efficacy of a compound at 200 nM=(% of Basal of test compound at 200 nM)/(Calculated Max of SNC80 dose response. Curve in prism).

[4] = 0.25 nM [3H]naltrindole, read-out: δ-binding (Naltrindole ligand) Ki
[5] = ~4 nM [3H]DPDPE, read-out: δ-binding (DPDPE ligand) Ki

T1 sequence (P33533 whole entry): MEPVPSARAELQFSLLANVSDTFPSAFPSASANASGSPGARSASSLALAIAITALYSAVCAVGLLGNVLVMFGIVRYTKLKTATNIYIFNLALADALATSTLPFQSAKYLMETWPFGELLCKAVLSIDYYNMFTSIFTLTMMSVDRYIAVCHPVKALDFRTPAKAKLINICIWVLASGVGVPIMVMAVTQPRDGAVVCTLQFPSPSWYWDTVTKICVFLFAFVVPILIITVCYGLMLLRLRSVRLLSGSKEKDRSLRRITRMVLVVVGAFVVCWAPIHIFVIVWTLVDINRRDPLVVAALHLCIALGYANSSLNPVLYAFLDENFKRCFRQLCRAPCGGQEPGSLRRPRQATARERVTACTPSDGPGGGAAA
T3 sequence (P33535 whole entry): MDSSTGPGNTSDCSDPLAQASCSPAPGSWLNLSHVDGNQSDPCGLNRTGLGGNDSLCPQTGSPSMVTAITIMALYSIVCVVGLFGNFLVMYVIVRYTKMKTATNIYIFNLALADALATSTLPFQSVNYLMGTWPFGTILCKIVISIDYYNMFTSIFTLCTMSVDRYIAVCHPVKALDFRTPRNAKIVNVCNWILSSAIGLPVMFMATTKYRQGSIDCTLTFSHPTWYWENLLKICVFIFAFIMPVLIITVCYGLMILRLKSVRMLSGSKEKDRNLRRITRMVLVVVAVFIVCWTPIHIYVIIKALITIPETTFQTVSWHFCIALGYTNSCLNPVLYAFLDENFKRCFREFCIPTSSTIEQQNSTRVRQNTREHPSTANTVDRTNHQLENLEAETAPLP
T2 sequence (P32300 whole entry): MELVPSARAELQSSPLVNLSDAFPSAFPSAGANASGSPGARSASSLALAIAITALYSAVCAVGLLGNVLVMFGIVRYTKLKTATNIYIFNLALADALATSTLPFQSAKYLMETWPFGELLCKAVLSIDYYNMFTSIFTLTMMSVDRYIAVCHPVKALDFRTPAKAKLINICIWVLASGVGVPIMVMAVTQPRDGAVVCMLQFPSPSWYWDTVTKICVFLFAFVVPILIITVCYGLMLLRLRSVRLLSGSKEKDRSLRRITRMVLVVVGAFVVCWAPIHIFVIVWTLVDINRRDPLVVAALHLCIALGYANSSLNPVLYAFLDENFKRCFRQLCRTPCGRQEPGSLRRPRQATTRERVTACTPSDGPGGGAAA

Row | Compound | Ki (delta opioid receptor [1]; [4]) [µM] | Ki (mu opioid receptor) [µM] | Ki (delta opioid receptor [1]; [5]) [µM] | also measured
1 | COc1ccc(Oc2ncc(NCC3CCCN3)c(Oc3ccc(OC)cc3)n2)cc1 (racemic) [Cpd 6] | 0.0437 | 1.84 |  | GTPγS δ-opioid receptor % Inh @10 μM (delta opioid receptor [2]): 12.502%
2 | COc1ccc(Oc2ncc(NCC3CCCNC3)c(Oc3ccc(OC)cc3)n2)cc1 (racemic) [Cpd 15] | 0.297 | 3.23 |  | 
3 | COc1ccc(Oc2ncc(NCC3CCNC3)c(Oc3ccc(OC)cc3)n2)cc1 (racemic) [Cpd 22] |  | 9.28 | 0.357 | 
4 | COc1ccc(Oc2ncc(NCC3CCCCN3)c(Oc3ccc(OC)cc3)n2)cc1 (racemic) [Cpd 25] |  | 2.51 | 0.489 | 
5 | COc1ccc(Oc2ncc(NC3CCN(Cc4ccccc4)C3)c(Oc3ccc(OC)cc3)n2)cc1 (racemic) [Cpd 27, (1-Benzyl-pyrrolidin-3-yl)-[2,4-bis-(4-methoxy-phenoxy)-pyrimidin-5-yl]-amine] | 1.02 | 3.57 |  | 
6 | COc1ccc(Oc2ncc(NCC3CNCCO3)c(Oc3ccc(OC)cc3)n2)cc1 (racemic) [Cpd 31] |  | > 10 | 0.723 | 
7 | COc1ccc(Oc2ncc(NC3CCCN(Cc4ccccc4)C3)c(Oc3ccc(OC)cc3)n2)cc1 (racemic) [Cpd 32] |  | > 10 | 0.876 | 
8 | COc1ccc(Oc2ncc(NCCC3CCCNC3)c(Oc3ccc(OC)cc3)n2)cc1 (racemic) [Cpd 34] |  | > 10 | 1.12 | 
9 | COc1ccc(Oc2ncc(NC3CCNC3)c(Oc3ccc(OC)cc3)n2)cc1 (racemic) [Cpd 36] | 2.14 | > 10 |  | 
10 | CCN(CC)CCC(C)Nc1cnc(Oc2ccc(OC)cc2)nc1Oc1ccc(OC)cc1 (racemic) [Cpd 38] | 3.09 | > 10 |  | 
11 | COc1ccc(Oc2ncc(NC(C)c3ccncc3)c(Oc3ccc(OC)cc3)n2)cc1 (racemic) [Cpd 40] | 4.37 | > 10 |  | 
12 | COc1ccc(Oc2ncc(CNC[C@@H]3CCCN3C)c(Oc3ccc(OC)cc3)n2)cc1 [Cpd 8] | 0.0925 | 7.16 |  | 
13 | COc1ccc(Oc2ncc(NC[C@@H]3CCCN3C)c(Oc3ccc(OC)cc3)n2)cc1 [Cpd 9, [2,4-Bis-(4-methoxy-phenoxy)-pyrimidin-5-yl]-(1-methyl-pyrrolidin-2-(S)-ylmethyl)-amine] | 0.115 | 9.29 |  | 
14 | COc1ccc(Oc2ncc(NC[C@@H](N)CO)c(Oc3ccc(OC)cc3)n2)cc1 [Cpd 10] | 0.13 | > 10 |  | 
15 | COc1ccc(Oc2ncc(NC3CC4CCC(C3)N4)c(Oc3ccc(OC)cc3)n2)cc1 (stereo not shown) [Cpd 11] | 0.155 | 2.15 |  | 
16 | COc1ccc(Oc2ncc(NC3CCNCC3)c(Oc3ccc(OC)cc3)n2)cc1 [Cpd 12] | 0.174 | 15.2 |  | 
17 | COc1ccc(Oc2ncc(NCC3CNC3)c(Oc3ccc(OC)cc3)n2)cc1 [Cpd 13] | 0.238 | > 10 |  | 
18 | COc1ccc(Oc2ncc(NC3CCC(N)CC3)c(Oc3ccc(OC)cc3)n2)cc1 (stereo not shown) [Cpd 16] | 0.455 | 3.86 |  | 
19 | COc1ccc(Oc2ncc(NCC3CCNCC3)c(Oc3ccc(OC)cc3)n2)cc1 [Cpd 17] | 0.477 | 12.3 |  | 

Row | Compound | Ki (delta opioid receptor [1]; [4]) [µM] | Ki (mu opioid receptor) [µM] | Ki (delta opioid receptor [1]; [5]) [µM] | also measured
20 | COc1ccc(C=Cc2ncc(NC[C@@H]3CCCN3)c(Oc3ccc(OC)cc3)n2)cc1 [Cpd 19, {4-(4-Methoxyphenoxy)-2-[2-(4-methoxyphenyl)vinyl]-pyrimidin-5-yl}-pyrrolidin-2-(S)-ylmethylamine] |  | 2.05 | 0.232 | 
21 | COc1ccc(Oc2nc([S+]([O-])c3ccc(OC)cc3)ncc2NC[C@@H]2CCCN2)cc1 (stereo partly drawn) [Cpd 20, [2-(4-Methoxybenzenesulfinyl)-4-(4-methoxyphenoxy)-pyrimidin-5-yl]-pyrrolidin-2-(S)-ylmethylamine] |  | > 10 | 0.274 | 
22 | COc1ccc(Oc2ncc(NC[C@H](N)CO)c(Oc3ccc(OC)cc3)n2)cc1 [Cpd 21, 2-(S)-Amino-3-[2,4-bis-(4-methoxy-phenoxy)-pyrimidin-5-ylamino]propan-1-ol] |  | > 10 | 0.348 | 
23 | COc1ccc(Nc2ncc(NC[C@@H]3CCCN3)c(Oc3ccc(OC)cc3)n2)cc1 [Cpd 23, 4-(4-Methoxyphenoxy)-N^2-(4-methoxyphenyl)-N^6-pyrrolidin-2-(S)-ylmethyl-pyrimidine-2,5-diamine] |  | > 10 | 0.363 | 
24 | Fc1ccc(Oc2ncc(NCC3CCCN3)c(Oc3ccc(F)cc3)n2)cc1 (stereo not shown) [Cpd 24] |  | > 10 | 0.396 | 
25 | COc1ccc(Oc2ncc(NCCC3CCNCC3)c(Oc3ccc(OC)cc3)n2)cc1 [Cpd 33] |  | > 10 | 1.11 | 
26 | COc1ccc(Oc2ncc(NC3CNCCC3c3ccccc3)c(Oc3ccc(OC)cc3)n2)cc1 (stereo not shown) [Cpd 35] |  | > 10 | 1.43 | 
27 | COc1ccc(Oc2ncc(NCc3ccc(-n4ccnc4)cc3)c(Oc3ccc(OC)cc3)n2)cc1 [Cpd 37, [2,4-Bis-(4-methoxy-phenoxy)-pyrimidin-5-yl]-(4-imidazol-1-yl-benzyl)-amine] | 2.7 | > 10 |  | 
28 | COc1ccc(Oc2ncc(NCc3ccncc3)c(Oc3ccc(OC)cc3)n2)cc1 [Cpd 39] | 3.53 | > 10 |  | 
29 | COc1ccc(Oc2ncc(NC3CCN(C(C)=O)CC3)c(Oc3ccc(OC)cc3)n2)cc1 [Cpd 41] | 5.33 | > 10 |  | 
30 | COc1ccc(Oc2ncc(NCc3ncc[nH]3)c(Oc3ccc(OC)cc3)n2)cc1 [Cpd 42] |  | > 10 | 3.81 | 
31 | COc1ccc(Oc2ncc(NCc3nccs3)c(Oc3ccc(OC)cc3)n2)cc1 [Cpd 43] |  | > 10 | 4.22 | 
32 | COc1ccc(Oc2nc(Nc3cccnc3)ncc2NC[C@@H]2CCCN2)cc1 [Cpd 48] |  |  |  | GTPγS δ-Rel Efficacy @200 nM (delta opioid receptor [3]): 0.267
33 | COc1ccc(Oc2nc(Nc3cccc(F)c3)ncc2NC[C@@H]2CCCN2)cc1 [Cpd 49, N^2-(3-Fluoro-phenyl)-4-(4-methoxy-phenoxy)-N^5-pyrrolidin-2-(S)-ylmethyl-pyrimidine-2,5-diamine] |  |  |  | GTPγS δ-Rel Efficacy @200 nM (delta opioid receptor [3]): 0.216
34 | COc1ccc(Oc2nc(Nc3nccs3)ncc2NC[C@@H]2CCCN2)cc1 [Cpd 50] |  |  |  | GTPγS δ-Rel Efficacy @200 nM (delta opioid receptor [3]): 0.143
35 | COc1ccc(Oc2nc(Oc3cccc(Cl)c3)ncc2NC[C@@H]2CCCN2)cc1 [Cpd 51] |  |  |  | GTPγS δ-opioid receptor Rel Efficacy (delta opioid receptor [3]): 1.040; GTPγS δ-Rel Efficacy @200 nM (delta opioid receptor [3]): 0.859; EC50 (delta opioid receptor [3]; GTPγS δ-opioid receptor EC50): 0.043 µM
36 | COc1ccc(Oc2nc(Oc3cccc(OC)c3)ncc2NC[C@@H]2CCCN2)cc1 [Cpd 52] |  |  |  | GTPγS δ-opioid receptor Rel Efficacy (delta opioid receptor [3]): 0.935; GTPγS δ-Rel Efficacy @200 nM (delta opioid receptor [3]): 0.624; EC50 (delta opioid receptor [3]; GTPγS δ-opioid receptor EC50): 0.051 µM
37 | COc1ccc(Oc2nc(Oc3cccc(C#N)c3)ncc2NC[C@@H]2CCCN2)cc1 [Cpd 53] |  |  |  | GTPγS δ-opioid receptor Rel Efficacy (delta opioid receptor [3]): 1.033; GTPγS δ-Rel Efficacy @200 nM (delta opioid receptor [3]): 0.705; EC50 (delta opioid receptor [3]; read-out: GTPγS δ-opioid receptor EC50): 0.053 µM
38 | COc1ccc(Oc2nc(Oc3cc(F)cc(F)c3)ncc2NC[C@@H]2CCCN2)cc1 [Cpd 54] |  |  |  | GTPγS δ-Rel Efficacy @200 nM (delta opioid receptor [3]): 0.066
